Reference: publication PMC3372086 (Journal of Medicinal Chemistry, 2012)
Where a name gives a salt, the structure may show the parent alone.

Legend:
TZM-bl cells = test: Cytotoxicity in TZM-bl cells; type: cell-based; settings: at the dose given as CC50 bound
MT-2 cells = test: Cytotoxicity in MT-2 cells; type: cell-based, Human; settings: for % toxicity at that dose (number in parenthesis), MT-2 cells: at the dose given as CC50 bound
[1] = tested on: several laboratory strains and primary isolates; settings: cited from earlier work

Cc1nc(C(NC(=O)C(=O)Nc2ccc(F)cc2)C2CCCCN2)sc1CO (stereo not drawn) [compound 25, N^1-(4-fluorophenyl)-N^2-((5-(hydroxymethyl)-4-methylthiazol-2-yl)(piperidin-2-yl)methyl)oxalamide.HCl]
% toxicity at that dose (number in parenthesis), TZM-bl cells (TZM-bl cells): 0%

Cc1nc(C(NC(=O)C(=O)Nc2ccc(Cl)cc2)C2CCCCN2)sc1CCO (stereo not drawn) [compound 9, N^1-(4-chlorophenyl)-N^2-((5-(2-hydroxyethyl)-4-methylthiazol-2-yl)(piperidin-2-yl)methyl)oxalamide.HCOOH]
% toxicity at that dose (number in parenthesis), MT-2 cells (MT-2 cells): 0%

CC1(C)CC(NC(=O)C(=O)Nc2ccc(Cl)cc2)CC(C)(C)N1 [compound 1]
potency against several laboratory strains and primary isolates [1]: low micromolar potency

Cc1nc(C(NC(=O)C(=O)Nc2ccc(F)c(Cl)c2)C2CCCCN2)sc1CO (stereo not drawn) [compound 24, N^1-(3-chloro-4-fluorophenyl)-N^2-((5-(hydroxymethyl)-4-methylthiazol-2-yl)(piperidin-2-yl)methyl)oxalamide.2HCl]
% toxicity at that dose (number in parenthesis), TZM-bl cells (TZM-bl cells): 0%

Cc1ccc(NC(=O)C(=O)NC(c2nc(C)c(CO)s2)C2CCCCN2)cc1F (stereo not drawn) [compound 28, N^1-(3-fluoro-4-methylphenyl)-N^2-((5-(hydroxymethyl)-4-methylthiazol-2-yl)(piperidin-2-yl)methyl)oxalamide.HCl]
% toxicity at that dose (number in parenthesis), TZM-bl cells (TZM-bl cells): 0%

CC1(C)CC(NC(=O)C(=O)Nc2ccc(Br)cc2)CC(C)(C)N1 [compound 2]
potency against several laboratory strains and primary isolates [1]: low micromolar potency

Cc1nc(C(NC(=O)C(=O)Nc2ccc(F)c(F)c2)C2CCCCN2)sc1CO (stereo not drawn) [compound 22, N^1-(3,4-difluorophenyl)-N^2-((5-(hydroxymethyl)-4-methylthiazol-2-yl)(piperidin-2-yl)methyl)oxalamide.HCl]
% toxicity at that dose (number in parenthesis), TZM-bl cells (TZM-bl cells): 0%

Cc1nc(C(NC(=O)C(=O)Nc2ccc(Cl)cc2)C2CCCCN2)sc1CCO.O=CO (stereo not drawn) [compound 30, N^1-(4-chlorophenyl)-N^2-((5-(2-hydroxyethyl)-4-methylthiazol-2-yl)(piperidin-2-yl)methyl)oxalamide.HCOOH]
% toxicity at that dose (number in parenthesis), MT-2 cells (MT-2 cells): 0% | CC50 (MT-2 cells; read-out: MT-2 Cells CC50 (μM ± SD), MT-2 cells, XTT, 4 days): > 62 µM
